Test results as given in PubChem BioAssay (NCI).
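Method: 48-hour compound exposure of cells in 96-well plates, five concentrations, linear interpolation of endpoints. GI50 = concentration required for 50% inhibition of growth. At the TGI there is no net growth.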

Tests used:
Assay in all cases: NCI-60 cell line screen, 48 h
LOX IMVI melanoma = system: LOX IMVI melanoma
HT29 colon = system: HT29 colon
U251 CNS = system: U251 CNS
A549 NSCLC = system: A549 NSCLC
RPMI-8226 leukemia = system: RPMI-8226 leukemia
KM12 colon = system: KM12 colon
ACHN renal = system: ACHN renal
M14 melanoma = system: M14 melanoma
SW-620 colon = system: SW-620 colon
NCI/ADR-RES ovarian = system: NCI/ADR-RES ovarian

| SMILES | GI50 (LOX IMVI melanoma) [µM] | TGI (LOX IMVI melanoma) [µM] | GI50 (HT29 colon) [µM] | TGI (HT29 colon) [µM] | GI50 (U251 CNS) [µM] | TGI (U251 CNS) [µM] | GI50 (A549 NSCLC) [µM] | TGI (A549 NSCLC) [µM] | GI50 (RPMI-8226 leukemia) [µM] | TGI (RPMI-8226 leukemia) [µM] | GI50 (KM12 colon) [µM] | TGI (KM12 colon) [µM] | GI50 (ACHN renal) [µM] | TGI (ACHN renal) [µM] | GI50 (M14 melanoma) [µM] | TGI (M14 melanoma) [µM] | GI50 (SW-620 colon) [µM] | TGI (SW-620 colon) [µM] | TGI (NCI/ADR-RES ovarian) [µM] | GI50 (NCI/ADR-RES ovarian) [µM] |
| --- | --- | --- | --- | --- | --- | --- | --- | --- | --- | --- | --- | --- | --- | --- | --- | --- | --- | --- | --- | --- |
| N.N.NC(CS)C(=O)[O-].NC(CS)C(=O)[O-].[Pt+4] (stereo unspecified) | > 50 | > 50 | > 50 | > 50 | > 50 | > 50 | > 50 | > 50 | > 50 | > 50 | > 50 | > 50 | > 50 | > 50 | > 50 | > 50 | > 50 | > 50 |  |  |
| CC1=Cc2cc3[n-]c(cc4nc(cc5[n-]c(cc1n2)cc5C)C(C)=C4CCC(=O)O)c(CCC(=O)O)c3C.[Pd+2] | 15.7 | 39.6 | 14.8 | 36.3 | 2.56 | 8.24 | 32.1 | 54.7 | 17.3 | 36.9 | 27 | 53.3 | 6.31 | 16.6 | 12.7 | 31.1 | 15.2 | > 63.4 |  |  |
| COC(=O)Nc1nc2ccccc2c(=O)[nH]1 |  |  |  | > 100 |  | > 100 |  | > 100 |  |  |  | > 100 |  | > 100 |  | > 100 |  | > 100 | > 100 |  |
| O=C(c1ccccc1)c1c(C(=O)c2ccccc2)c(-c2ccccc2)c2c(-c3ccccc3)sc(-c3ccccc3)c2c1-c1ccccc1 |  | > 100 |  | > 100 |  | > 100 |  | > 100 |  | > 100 |  | > 100 |  | > 100 |  | > 100 |  | > 100 |  |  |
| CCOC(=O)C1C(=O)c2ccccc2CN1Cc1ccccc1 (stereo unspecified) |  | > 100 |  | > 100 |  | > 100 |  | > 100 |  | > 100 |  | > 100 |  | > 100 |  | > 100 |  | > 100 |  |  |
| CC1(C)OCC(CO)(Nc2nc(N3CC3)nc(N3CC3)n2)CO1 |  | 32.4 |  | 53.7 |  | 31.7 |  | 34.3 |  | > 100 |  | 43.3 |  | 13.9 |  | 25.5 |  | 64.1 |  |  |
| O=C(O)c1cc2c(cn1)[nH]c1ccccc12 |  | > 100 |  | > 100 |  | > 100 |  | > 100 |  | > 100 |  | > 100 |  | > 100 |  | > 100 |  | > 100 |  |  |
| OCCCCC#Cc1ccccc1C#Cc1ccccc1C(F)(F)F | 4.99 | 18.5 | 4.01 | 16.5 | 4.63 | 17.9 | 4.36 | 16.6 | 3.84 | 26 | 3.57 | 16.7 | 11.4 | 23.5 |  |  | 4.35 | 16.4 | 16.2 | 4.2 |
| CC(=O)OCC1OC(n2c(=O)n(-c3ccccc3)c(=O)c3ccccc32)C(OC(C)=O)C(OC(C)=O)C1OC(C)=O (stereo unspecified) |  | > 100 |  | > 100 |  | > 100 |  | > 100 |  | > 100 |  | > 100 |  | > 100 |  | > 100 |  | > 100 |  |  |
| CN(c1ccccc1)C(c1ccccc1)C(O)c1ccccc1 (stereo unspecified) |  | 31.7 |  | 32.9 |  | 33.2 |  | 35.4 |  | 49.3 |  | 34.4 |  | 54.4 |  | 30.4 |  | 33.2 |  |  |
| c1ccc(N=C2c3ccccc3C3=NCCCN32)cc1 |  | > 100 |  | > 100 |  | > 100 |  | > 100 |  | > 100 |  | > 100 |  | > 100 |  | > 100 |  | > 100 |  |  |
| COC(=O)C1=C(O)C(O)=C(C(=O)OC)C1 |  | > 100 |  | > 100 |  | > 100 |  | > 100 |  | > 100 |  | > 100 |  | > 100 |  | > 100 |  | > 100 |  |  |
| O=[N+]([O-])C1C2C=CC(C2)[C@H]1c1ccccc1Cl (stereo partly specified) |  | > 100 |  | > 100 |  | > 100 |  | > 100 |  | > 100 |  | > 100 |  | > 100 |  | > 100 |  | > 100 |  |  |
| COc1ccc2ccc([Se]c3ccc4ccc(OC)cc4c3)cc2c1 |  | > 100 |  | > 100 |  | 99.2 |  | > 100 |  | > 100 |  | > 100 |  | > 100 |  | > 100 |  | > 100 |  |  |
| O=C(Nc1ccc(Cl)cc1)c1cc2ccccc2cc1O | 2.36 | 18.2 | 4.09 | > 100 | 2.54 | 29.5 | 4.54 | > 100 |  |  | 2.81 | > 100 | 3.34 | > 100 |  |  | 3.62 | > 100 | > 100 | 2.81 |
| CC(=O)/C=C/c1ccc(C2CC(C)=Nc3c(ccc4c3C(=O)c3ccccc3C4=O)N2)cc1 (stereo unspecified) |  | > 100 |  | > 100 |  | > 100 |  | > 100 |  | > 100 |  | > 23.6 |  | > 100 |  | > 100 |  | > 100 |  |  |
| O=C1C(=O)N(c2ccc(Cl)c(Cl)c2)C(=O)C(=O)C1c1nc2ccccc2o1 |  | > 100 |  | > 100 |  | 85.6 |  | > 100 |  | 66.5 |  | > 100 |  | > 100 |  | > 100 |  | > 100 |  |  |
| C[C@]12CC[C@@H]3c4ccc(O)cc4CC[C@H]3[C@@H]1CC[C@@H]2NS(=O)(=O)Cc1ccc(Cl)cc1 |  |  | 3.34 | 10.8 | 3.33 | 11.8 | 2.98 | 11 | 3.14 | 15.5 | 2.05 | 4.39 | 2.94 | 11.5 | 2.49 | 6.25 | 3.5 | 17.3 | 10.7 | 2.69 |
| O=C(O)C12C3CCCC1C2CC3 (stereo unspecified) |  | > 100 |  | > 100 |  | > 100 |  | > 100 |  | > 100 |  | > 100 |  | > 100 |  | > 100 |  |  |  |  |
| O=C1OC2(c3ccccc3Oc3ccccc32)c2ccccc21 |  | > 100 |  | > 100 |  | > 100 |  | > 100 |  | > 100 |  | > 100 |  | > 100 |  | > 100 |  | > 100 |  |  |
